Results from patent US8541588B2, “Sulfonamide derivatives” (Pfizer Limited, priority 2009, dated 2013).

Target: T1, Nav1.7 (or SCN9A) channel; HEK cells stably transfected with hSCN9A (Homo sapiens, UniProt Q15858)
T1 construct: expressed in transfected cells
Assay: Nav1.7 block, PatchXpress 7000 automated whole-cell voltage clamp, estimated IC50 (EIC50)
Format: cell-based
Conditions: estimated IC50; hSCN9A HEK cells, PatchXpress platform; Examples 283-814

T1 sequence (Q15858 whole entry): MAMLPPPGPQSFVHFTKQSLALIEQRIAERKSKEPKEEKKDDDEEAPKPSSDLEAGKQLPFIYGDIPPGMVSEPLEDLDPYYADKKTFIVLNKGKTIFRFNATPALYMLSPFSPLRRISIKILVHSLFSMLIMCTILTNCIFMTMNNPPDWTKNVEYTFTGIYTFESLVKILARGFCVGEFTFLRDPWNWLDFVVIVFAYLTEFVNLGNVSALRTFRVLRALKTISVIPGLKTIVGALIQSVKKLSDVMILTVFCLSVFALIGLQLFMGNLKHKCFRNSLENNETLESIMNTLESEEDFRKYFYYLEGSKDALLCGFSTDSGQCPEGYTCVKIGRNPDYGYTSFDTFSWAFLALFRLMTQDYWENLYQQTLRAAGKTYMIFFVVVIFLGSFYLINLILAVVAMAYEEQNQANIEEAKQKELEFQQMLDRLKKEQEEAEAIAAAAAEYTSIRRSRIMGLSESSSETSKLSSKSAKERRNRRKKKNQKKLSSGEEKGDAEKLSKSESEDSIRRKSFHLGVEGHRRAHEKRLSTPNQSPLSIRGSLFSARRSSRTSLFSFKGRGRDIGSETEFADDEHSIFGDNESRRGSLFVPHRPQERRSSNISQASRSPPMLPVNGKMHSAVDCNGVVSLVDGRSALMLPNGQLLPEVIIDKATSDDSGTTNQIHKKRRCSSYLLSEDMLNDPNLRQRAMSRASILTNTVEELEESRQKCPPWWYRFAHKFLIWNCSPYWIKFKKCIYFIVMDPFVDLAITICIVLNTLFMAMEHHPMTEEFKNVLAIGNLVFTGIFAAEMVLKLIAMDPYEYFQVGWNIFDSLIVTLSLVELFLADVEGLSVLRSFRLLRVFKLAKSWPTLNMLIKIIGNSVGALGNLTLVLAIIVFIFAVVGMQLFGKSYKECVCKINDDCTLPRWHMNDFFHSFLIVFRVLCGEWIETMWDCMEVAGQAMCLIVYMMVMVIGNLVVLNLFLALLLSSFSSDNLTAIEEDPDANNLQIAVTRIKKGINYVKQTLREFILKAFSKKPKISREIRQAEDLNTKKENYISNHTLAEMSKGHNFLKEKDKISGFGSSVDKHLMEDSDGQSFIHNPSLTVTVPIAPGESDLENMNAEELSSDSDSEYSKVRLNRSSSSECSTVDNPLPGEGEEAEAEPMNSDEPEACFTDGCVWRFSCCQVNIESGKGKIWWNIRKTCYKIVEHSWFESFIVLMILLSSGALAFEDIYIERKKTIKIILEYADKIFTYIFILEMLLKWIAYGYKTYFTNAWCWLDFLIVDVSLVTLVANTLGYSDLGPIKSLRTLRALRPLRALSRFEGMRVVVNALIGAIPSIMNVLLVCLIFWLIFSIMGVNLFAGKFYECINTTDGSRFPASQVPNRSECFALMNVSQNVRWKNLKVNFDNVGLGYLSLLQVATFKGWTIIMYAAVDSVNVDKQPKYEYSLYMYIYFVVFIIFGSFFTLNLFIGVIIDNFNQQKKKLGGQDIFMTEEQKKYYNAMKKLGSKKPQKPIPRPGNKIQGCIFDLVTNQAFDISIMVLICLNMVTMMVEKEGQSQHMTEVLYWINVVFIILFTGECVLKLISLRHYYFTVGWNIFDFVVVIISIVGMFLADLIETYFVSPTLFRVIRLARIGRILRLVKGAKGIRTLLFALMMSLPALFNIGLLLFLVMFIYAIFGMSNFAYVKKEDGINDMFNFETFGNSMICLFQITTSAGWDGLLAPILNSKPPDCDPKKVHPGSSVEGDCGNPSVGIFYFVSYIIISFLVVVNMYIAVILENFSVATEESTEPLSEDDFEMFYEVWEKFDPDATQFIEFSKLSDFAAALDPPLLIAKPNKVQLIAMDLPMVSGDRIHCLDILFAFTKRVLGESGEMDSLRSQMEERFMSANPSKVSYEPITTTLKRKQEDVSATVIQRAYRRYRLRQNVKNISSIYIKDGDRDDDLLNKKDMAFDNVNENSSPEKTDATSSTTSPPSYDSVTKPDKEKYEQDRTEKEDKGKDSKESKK

Compound	IC50 [nM]
N#Cc1cc(S(=O)(=O)Nc2nccs2)ccc1Oc1cccc(-n2cccn2)c1 [Example 319, 3-cyano-4-[3-(1H-pyrazol-1-yl)phenoxy]-N-1,3-thiazol-2-ylbenzenesulfonamide]	2500
Cn1cc(C(F)(F)F)nc1-c1ccc(Oc2ccc(S(=O)(=O)Nc3nccs3)cc2C#N)cc1 [Example 320, 3-cyano-4-{4-[1-methyl-4-(trifluoromethyl)-1H-imidazol-2-yl]phenoxy}-N-1,3-thiazol-2-ylbenzenesulfonamide]	3300
N#Cc1cc(S(=O)(=O)Nc2nccs2)ccc1Oc1ccc(Cl)cc1-n1nccn1 [Example 321, 4-[4-chloro-2-(2H-1,2,3-triazol-2-yl)phenoxy]-3-cyano-N-1,3-thiazol-2-ylbenzenesulfonamide]	770
N#Cc1cc(S(=O)(=O)Nc2nccs2)ccc1Oc1ccc(Cl)cc1-n1ccnn1 [Example 322, 4-[4-chloro-2-(1H-1,2,3-triazol-1-yl)phenoxy]-3-cyano-N-1,3-thiazol-2-ylbenzenesulfonamide]	550
CCOCn1nncc1-c1cc(Cl)ccc1Oc1ccc(S(=O)(=O)Nc2nccs2)cc1C#N [Example 323, 4-{4-chloro-2-[1-(ethoxymethyl)-1H-1,2,3-triazol-5-yl]phenoxy}-3-cyano-N-1,3-thiazol-2-ylbenzenesulfonamide]	>300
CCn1nc(-c2ccc(Oc3ccc(S(=O)(=O)Nc4nccs4)cc3C#N)c(F)c2)cc1C(F)(F)F [Example 324, 3-cyano-4-{4-[1-ethyl-5-(trifluoromethyl)-1H-pyrazol-3-yl]-2-fluorophenoxy}-N-1,3-thiazol-2-ylbenzenesulfonamide]	>1000
Cn1cnc(-c2cc(Cl)ccc2Oc2ccc(S(=O)(=O)Nc3nccs3)cc2C#N)n1 [Example 325, 4-[4-chloro-2-(1-methyl-1H-1,2,4-triazol-3-yl)phenoxy]-3-cyano-N-1,3-thiazol-2-ylbenzenesulfonamide]	>300
Cn1ncnc1-c1cc(Cl)ccc1Oc1ccc(S(=O)(=O)Nc2nccs2)cc1C#N [Example 326, 4-[4-chloro-2-(1-methyl-1H-1,2,4-triazol-5-yl)phenoxy]-3-cyano-N-1,3-thiazol-2-ylbenzenesulfonamide]	2100
CCn1nc(C(F)(F)F)cc1-c1ccc(Oc2ccc(S(=O)(=O)Nc3nccs3)cc2C#N)cc1F [Example 327, 3-cyano-4-{4-[1-ethyl-3-(trifluoromethyl)-1H-pyrazol-5-yl]-3-fluorophenoxy}-N-1,3-thiazol-2-ylbenzenesulfonamide]	370
CCn1nc(C(F)(F)F)cc1-c1ccc(Oc2ccc(S(=O)(=O)Nc3nccs3)cc2C#N)c(F)c1 [Example 328, 3-cyano-4-{4-[1-ethyl-3-(trifluoromethyl)-1H-pyrazol-5-yl]-2-fluorophenoxy}-N-1,3-thiazol-2-ylbenzenesulfonamide]	81
Cn1nc(C(F)(F)F)cc1-c1ccc(Oc2ccc(S(=O)(=O)Nc3nccs3)cc2C#N)cc1F [Example 329, 3-cyano-4-{3-fluoro-4-[1-methyl-3-(trifluoromethyl)-1H-pyrazol-5-yl]phenoxy}-N-1,3-thiazol-2-ylbenzenesulfonamide]	340
Cn1nc(C(F)(F)F)cc1-c1ccc(Oc2ccc(S(=O)(=O)Nc3nccs3)cc2C#N)c(F)c1 [Example 330, 3-cyano-4-{2-fluoro-4-[1-methyl-3-(trifluoromethyl)-1H-pyrazol-5-yl]phenoxy}-N-1,3-thiazol-2-ylbenzenesulfonamide]	250
N#Cc1cc(S(=O)(=O)Nc2nccs2)ccc1Oc1cnn(Cc2ccc(Cl)cc2)c1 [Example 331, 4-{[1-(4-chlorobenzyl)-1H-pyrazol-4-yl]oxy}-3-cyano-N-1,3-thiazol-2-ylbenzenesulfonamide]	2000
N#Cc1cc(S(=O)(=O)Nc2nccs2)ccc1Oc1cnn(-c2ccc(Cl)cc2)c1 [Example 332, 4-{[1-(4-chlorophenyl)-1H-pyrazol-4-yl]oxy}-3-cyano-N-1,3-thiazol-2-ylbenzenesulfonamide]	>1000
